Active and inactive are the calls of the source.
Experiments:
[1] = Counterscreen for inhibitors of Trypanosoma brucei methionyl tRNA synthetase (MetRS): Luminescence-based cell-based high throughput dose response assay to identify compounds that are cytotoxic to Jurkat human T lymphocyte cells.; type: functional
[2] = biological target: T1, Methionyl-tRNA synthetase, putative (Trypanosoma brucei brucei, UniProt Q38C91); type: functional, Trypanosoma brucei brucei strain 927/4 GUTat10.1
T1 sequence (Q38C91 whole entry): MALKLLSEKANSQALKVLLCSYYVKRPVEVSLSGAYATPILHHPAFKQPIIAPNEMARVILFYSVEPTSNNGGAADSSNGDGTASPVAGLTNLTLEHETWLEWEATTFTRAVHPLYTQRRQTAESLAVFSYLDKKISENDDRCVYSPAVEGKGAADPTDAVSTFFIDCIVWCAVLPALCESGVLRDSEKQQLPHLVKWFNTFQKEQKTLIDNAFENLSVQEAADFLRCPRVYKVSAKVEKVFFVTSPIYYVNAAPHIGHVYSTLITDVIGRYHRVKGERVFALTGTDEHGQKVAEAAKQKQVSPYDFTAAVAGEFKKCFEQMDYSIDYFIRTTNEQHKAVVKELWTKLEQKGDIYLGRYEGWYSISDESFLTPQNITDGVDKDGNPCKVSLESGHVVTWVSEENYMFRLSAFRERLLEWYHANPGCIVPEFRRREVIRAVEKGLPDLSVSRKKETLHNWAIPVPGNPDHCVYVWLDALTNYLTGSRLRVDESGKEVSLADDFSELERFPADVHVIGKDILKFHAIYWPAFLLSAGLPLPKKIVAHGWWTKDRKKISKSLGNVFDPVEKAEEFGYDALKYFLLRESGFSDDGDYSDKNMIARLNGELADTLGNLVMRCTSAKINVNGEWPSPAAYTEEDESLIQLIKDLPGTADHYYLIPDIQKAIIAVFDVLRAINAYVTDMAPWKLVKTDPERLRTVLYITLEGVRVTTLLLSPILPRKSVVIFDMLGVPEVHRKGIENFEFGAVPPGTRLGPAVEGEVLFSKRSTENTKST

[3] = biological target: T1, Methionyl-tRNA synthetase, putative; type: functional, Trypanosoma brucei brucei strain 927/4 GUTat10.1; remark: listed apart in the source
[4] = Late stage counterscreen for inhibitors of Trypanosoma brucei methionyl tRNA synthetase (MetRS): Luminescence-based cell-based high throughput dose response assay to identify compounds that are cytotoxic to Jurkat human T lymphocyte cells.; type: functional
[5] = control 3'UTR Renilla luciferase suppression, dose response, counter-screen for Shn3 inhibitor project, cell-based, Clone20-Shn3RL, cherry-picked (AID 624133); type: functional
[6] = Shn3 3'UTR reporter inhibitors, dose response, cell-based, Clone20 osteoblasts, firefly luciferase, cherry-picked (AID 624132); type: functional;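 note: firefly luciferase luminescence from reporter carrying the Shn3 3'UTR in osteoblasts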
[7] = reduction of Shn3 3'UTR firefly luciferase signal, dose response, Schnurri-3 inhibitor project, cell-based, Clone20 osteoblasts, cherry-pick, set 2 (AID 720490); type: functional;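 note: actives lower the luminescence signal as inhibitors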
[8] = inhibitors of control Renilla luciferase reporter, dose response, counter-screen for Shn3 3'UTR targeting project, Clone20-Shn3RL cells, dual-Glo, cherry-pick, set 2 (AID 720724); type: functional, cell-based; conditions: Dual-Go Shn3RL
[9] = biological target: T2, Oxysterols receptor LXR-beta (Homo sapiens, UniProt P55055); type: functional, cell-based;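 note: Cell-based luminescence dose-response assay of agonist activity at LXR, run as a confirmatory counterscreen to a daf-12 agonist screen; HEK293 cells with Gal4-LXR fusion and GAL4-driven luciferase reporter; agonist potency from rising luciferase signal of a Gal4-LXR reporter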
T2 sequence (P55055 whole entry): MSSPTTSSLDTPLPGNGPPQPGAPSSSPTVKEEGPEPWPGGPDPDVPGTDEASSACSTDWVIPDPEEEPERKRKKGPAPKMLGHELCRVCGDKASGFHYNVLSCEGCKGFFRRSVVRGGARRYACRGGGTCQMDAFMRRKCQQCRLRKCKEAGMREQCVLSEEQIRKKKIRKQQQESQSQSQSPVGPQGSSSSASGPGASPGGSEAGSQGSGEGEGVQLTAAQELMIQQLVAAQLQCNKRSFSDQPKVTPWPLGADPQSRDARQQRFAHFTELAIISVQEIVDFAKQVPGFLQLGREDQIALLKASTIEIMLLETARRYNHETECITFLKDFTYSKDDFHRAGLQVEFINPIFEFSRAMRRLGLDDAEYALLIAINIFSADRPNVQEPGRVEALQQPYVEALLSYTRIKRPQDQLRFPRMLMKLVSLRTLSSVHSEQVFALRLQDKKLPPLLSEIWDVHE

cells [10] = test: cells
[11] = biological target: C-X-C chemokine receptor type 4 (Homo sapiens, UniProt P61073); test: SAR analysis of small molecule antagonists of the CXCR6 receptor using a CXCR4 receptor luminescent beta-arrestin counterscreen.; type: functional
[12] = biological target: C-C chemokine receptor type 6 (Homo sapiens, UniProt P51684); test: SAR analysis of small molecule antagonists of the CXCR6 receptor using a CCR6 receptor luminescent beta-arrestin counterscreen.; type: functional
[13] = cytotoxicity dependent on PAX8, dose response, cell-based, plate reader, dry powder (AID 743049); type: functional
Paired box protein Pax-8 = Paired box protein Pax-8 (Homo sapiens, UniProt Q06710); test: inhibitors of PAX8-driven TPO luciferase reporter, dose response, RMG-I cells, cherry-pick (AID 687027); type: functional, cell-based;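 note: luciferase reporter driven by Pax8 target thyroperoxidase promoter measured by SteadyGlo luminescence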
[14] = cytotoxicity in COV434 cells, dose response, cytotoxicity control for PAX8 inhibitor project, cell-based, plate reader, dry powder, SA7 (AID 743145); type: functional
[15] = PAX5 activity inhibitors, dose response, selectivity assay for PAX8 inhibitor project, cell-based, plate reader, dry powder samples (AID 743047); type: functional;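 note: HEK293 cells carrying a Pax5 driven CD19 promoter luciferase reporter; potency of inhibitors that lower reporter luminescence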
[16] = PAX2 cell-based inhibition, dose response, selectivity assay for PAX8 inhibitor project, plate reader, dry powder samples (AID 743048); type: functional;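 note: HEK293 cells carrying a WT1 promoter luciferase reporter driven by expressed Pax2; potency is for inhibition of Pax2 driven reporter signal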
[17] = biological target: Potassium channel subfamily K member 3 (Homo sapiens, UniProt O14649); test: TASK1 (KCNK3) potassium channel inhibitors, SAR follow-up, CHO cells, FluxOR thallium flux (AID 652212); type: functional
cells [18] = conditions: HEK293;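 note: cells exposed to compound for 48 hours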
INS1 = test: beta cell apoptosis inhibitors, cytokine rescue, dose response, luminescence, retest (AID 449756); type: functional, cell-based; conditions: Rattus norvegicus;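 note: cell death triggered by IL-1 beta plus TNF-alpha plus IFN-gamma mixture; protective hits raise ATP signal compared with cytokine alone wells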
[19] = biological target: Disintegrin and metalloproteinase domain-containing protein 17 (Homo sapiens, UniProt P78536); test: ADAM17 protease inhibitors, dose response, counter-screen for ADAM10 exosite inhibitor project, biochemical, quenched FRET substrate (AID 743253)
Streptococcus = test: Group A Streptococcus viability loss, dose response, counter-screen for streptokinase expression inhibitor project, luminescence, BacTiterGlo (AID 1915); type: functional, organism-based;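 note: potency for reduction of bacterial viability or growth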
Streptokinase A = biological target: T3, Streptokinase A (Streptococcus pyogenes serotype M1, UniProt P10520); test: S. pyogenes streptokinase expression inhibitors, potency, dose response, plasminogen activation absorbance, OD405 (AID 1914); type: functional, Streptococcus pyogenes M1 GAS;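 note: secreted streptokinase activity via plasminogen activation per viability signal from cell pellet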
T3 sequence (P10520 whole entry): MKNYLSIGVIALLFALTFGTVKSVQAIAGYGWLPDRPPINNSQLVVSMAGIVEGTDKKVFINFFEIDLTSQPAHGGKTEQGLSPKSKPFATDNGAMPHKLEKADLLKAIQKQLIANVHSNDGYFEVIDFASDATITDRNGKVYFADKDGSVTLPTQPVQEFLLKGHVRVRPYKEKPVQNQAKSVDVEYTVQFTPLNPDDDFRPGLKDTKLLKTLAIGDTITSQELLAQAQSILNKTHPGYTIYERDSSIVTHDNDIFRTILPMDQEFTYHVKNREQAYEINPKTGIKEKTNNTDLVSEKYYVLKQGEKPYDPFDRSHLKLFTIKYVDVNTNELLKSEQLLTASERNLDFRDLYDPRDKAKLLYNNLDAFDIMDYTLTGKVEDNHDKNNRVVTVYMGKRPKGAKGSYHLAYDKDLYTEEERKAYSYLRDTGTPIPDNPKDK

[20] = test system: Streptococcus sp. 'group A'; test: growth inhibition of control SK(-) GAS strain, dose response, counter-screen for streptokinase expression inhibitor project, luminescence, kanamycin, BacTiterGlo, confirmation (AID 1900); type: functional, organism-based
[21] = endogenous miR-122 level reduction, dose response, orthogonal assay for miR-122 inhibitor project, cell-based, Huh7, RT-qPCR, dry powder (AID 687041); type: functional
[22] = biological target: E3 ubiquitin-protein ligase UHRF1 (Homo sapiens, UniProt Q96T88); test: Counterscreen for inhibitors of 5-meCpG-binding domain protein 2 (MBD2): TRFRET-based biochemical high throughput dose response assay to identify inhibitors of binding of ubiquitin-like with PHD and ring finger domains 1 (UHRF1) to methylated oligonucleotide.
cells [23] = test: cells; remark: listed apart in the source
[24] = TRPM1 promoter luciferase reporter signal decrease, dose response, MITF inhibitor project, cell-based, SK-MEL-5, dry powder, set 8 (AID 624430); type: functional
[25] = MITF: Counter assay: A375 proliferation Measured in Cell-Based System Using Plate Reader - 2084-03_Inhibitor_Dose_DryPowder_Activity_Set8.; type: functional; conditions: A-375
[26] = MITF Orthogonal Assay: SK-MEL-5 CTG Assay Measured in Cell-Based System Using Plate Reader - 2084-02_Inhibitor_Dose_DryPowder_Activity_Set7.; type: functional
HEK293 = test: HEK293T cell cytotoxicity, dose response, cytotoxicity control, ATP luminescence, cherry-pick samples (AID 687005); type: functional, cell-based; conditions: Homo sapiens;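 note: cells exposed to compound for 48 hours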
[27] = HEK293 Cytotoxicity Assay Measured in Cell-Based System Using Plate Reader - 7071-01_Inhibitor_Dose_CherryPick_Activity_Set2.; type: functional
[28] = biological target: NAD-dependent protein deacylase sirtuin-5, mitochondrial (Homo sapiens, UniProt Q9NXA8); test: SIRT5 desuccinylase inhibitors, dose response, biochemical, fluorescence imaging, cherry-pick, set 5 (AID 720591);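 note: desuccinylation of succinyl peptide AMC substrate read as fluorescence after trypsin release; potency of inhibitors that lower fluorescence and may act on trypsin instead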
[29] = HEK293 cell cytotoxicity, dose response, cytotoxicity control, cherry-picks, set 5 (AID 1053117); type: functional, cell-based
[30] = inhibitors of fibronectin matrix deposition, dose response, AH1F cells, Alexa488-FN fluorescence, cherry-picks (AID 1035475); type: functional, cell-based
[31] = HepG2 cell cytotoxicity, dose response, cytotoxicity control, cherry-picks, set 5 (AID 1053118); type: functional, cell-based
[32] = P. falciparum Dd2 growth inhibitors, dose response, SYBR Green, cherry-picked samples (AID 1159567); type: functional, cell-based
[33] = HepG2 cell cytotoxicity, dose response, cytotoxicity control, cherry-picked samples (AID 1159577); type: functional, cell-based
[34] = A549 cell cytotoxicity, dose response, cytotoxicity control, cherry-picks, 26 µM top dose (AID 1053119); type: functional, cell-based

Chain of C-X-C chemokine receptor type 4 (P61073 whole entry): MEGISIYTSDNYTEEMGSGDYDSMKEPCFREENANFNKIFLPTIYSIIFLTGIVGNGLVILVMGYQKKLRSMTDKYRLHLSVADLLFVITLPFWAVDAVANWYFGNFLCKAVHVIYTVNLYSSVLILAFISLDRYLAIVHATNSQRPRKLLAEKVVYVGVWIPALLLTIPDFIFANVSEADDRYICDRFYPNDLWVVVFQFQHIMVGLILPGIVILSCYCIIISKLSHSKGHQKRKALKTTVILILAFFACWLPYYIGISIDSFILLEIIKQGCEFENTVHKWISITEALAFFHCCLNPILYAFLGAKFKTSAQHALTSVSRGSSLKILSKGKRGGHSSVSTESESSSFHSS
Chain of Paired box protein Pax-8 (Q06710 whole entry): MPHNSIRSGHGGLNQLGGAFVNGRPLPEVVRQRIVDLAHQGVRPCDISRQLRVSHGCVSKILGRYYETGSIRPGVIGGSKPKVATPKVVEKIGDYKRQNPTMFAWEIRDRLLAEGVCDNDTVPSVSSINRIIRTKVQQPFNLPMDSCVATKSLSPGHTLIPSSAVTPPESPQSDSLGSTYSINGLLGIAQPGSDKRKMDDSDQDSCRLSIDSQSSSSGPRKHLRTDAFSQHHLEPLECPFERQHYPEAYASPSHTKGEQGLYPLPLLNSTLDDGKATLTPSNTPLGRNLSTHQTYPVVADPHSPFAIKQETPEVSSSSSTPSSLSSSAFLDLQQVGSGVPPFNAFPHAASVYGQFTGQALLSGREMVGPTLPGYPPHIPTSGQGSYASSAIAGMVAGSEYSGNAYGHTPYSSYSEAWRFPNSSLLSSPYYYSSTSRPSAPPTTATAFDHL
Chain of E3 ubiquitin-protein ligase UHRF1 (Q96T88 whole entry, the tested form may be a part): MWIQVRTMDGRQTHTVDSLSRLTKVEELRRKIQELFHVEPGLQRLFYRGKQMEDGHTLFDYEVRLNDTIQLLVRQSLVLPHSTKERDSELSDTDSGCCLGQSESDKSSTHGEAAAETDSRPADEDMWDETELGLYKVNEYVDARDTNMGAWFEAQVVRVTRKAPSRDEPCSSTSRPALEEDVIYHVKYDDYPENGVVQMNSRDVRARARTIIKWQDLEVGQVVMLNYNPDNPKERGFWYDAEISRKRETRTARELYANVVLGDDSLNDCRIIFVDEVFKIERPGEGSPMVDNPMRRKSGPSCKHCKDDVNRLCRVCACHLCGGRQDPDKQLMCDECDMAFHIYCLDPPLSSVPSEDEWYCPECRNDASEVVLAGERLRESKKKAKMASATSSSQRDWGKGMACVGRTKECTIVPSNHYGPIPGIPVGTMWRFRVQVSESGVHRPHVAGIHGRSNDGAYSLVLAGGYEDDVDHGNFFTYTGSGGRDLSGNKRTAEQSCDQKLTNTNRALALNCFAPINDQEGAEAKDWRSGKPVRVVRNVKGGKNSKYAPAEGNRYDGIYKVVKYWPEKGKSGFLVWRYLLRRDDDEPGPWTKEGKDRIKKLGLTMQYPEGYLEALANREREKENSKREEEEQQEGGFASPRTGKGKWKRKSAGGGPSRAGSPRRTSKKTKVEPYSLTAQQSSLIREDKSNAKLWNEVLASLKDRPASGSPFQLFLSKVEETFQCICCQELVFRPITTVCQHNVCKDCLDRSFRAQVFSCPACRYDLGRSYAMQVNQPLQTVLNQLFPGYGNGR
Chain of Potassium channel subfamily K member 3 (O14649 whole entry): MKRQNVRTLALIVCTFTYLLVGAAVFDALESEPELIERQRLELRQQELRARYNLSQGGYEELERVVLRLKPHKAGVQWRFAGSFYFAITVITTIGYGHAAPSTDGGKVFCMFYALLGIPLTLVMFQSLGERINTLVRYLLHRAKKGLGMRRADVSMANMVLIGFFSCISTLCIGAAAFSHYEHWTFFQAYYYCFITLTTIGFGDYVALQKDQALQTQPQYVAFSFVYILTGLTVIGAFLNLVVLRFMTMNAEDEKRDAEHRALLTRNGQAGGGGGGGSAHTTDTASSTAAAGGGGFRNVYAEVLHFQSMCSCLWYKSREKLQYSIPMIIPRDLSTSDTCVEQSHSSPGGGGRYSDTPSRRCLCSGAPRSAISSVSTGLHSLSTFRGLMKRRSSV
Chain of NAD-dependent protein deacylase sirtuin-5, mitochondrial (Q9NXA8 whole entry): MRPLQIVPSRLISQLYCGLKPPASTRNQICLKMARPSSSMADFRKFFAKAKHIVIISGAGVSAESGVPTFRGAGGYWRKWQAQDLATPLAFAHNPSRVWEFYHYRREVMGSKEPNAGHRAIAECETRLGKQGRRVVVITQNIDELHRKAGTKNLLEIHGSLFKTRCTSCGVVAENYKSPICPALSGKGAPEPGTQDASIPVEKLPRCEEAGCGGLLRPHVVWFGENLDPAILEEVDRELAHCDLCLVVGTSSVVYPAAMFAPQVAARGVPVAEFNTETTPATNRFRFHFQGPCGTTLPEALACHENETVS
Chain of Disintegrin and metalloproteinase domain-containing protein 17 (P78536 whole entry, the tested form may be a part): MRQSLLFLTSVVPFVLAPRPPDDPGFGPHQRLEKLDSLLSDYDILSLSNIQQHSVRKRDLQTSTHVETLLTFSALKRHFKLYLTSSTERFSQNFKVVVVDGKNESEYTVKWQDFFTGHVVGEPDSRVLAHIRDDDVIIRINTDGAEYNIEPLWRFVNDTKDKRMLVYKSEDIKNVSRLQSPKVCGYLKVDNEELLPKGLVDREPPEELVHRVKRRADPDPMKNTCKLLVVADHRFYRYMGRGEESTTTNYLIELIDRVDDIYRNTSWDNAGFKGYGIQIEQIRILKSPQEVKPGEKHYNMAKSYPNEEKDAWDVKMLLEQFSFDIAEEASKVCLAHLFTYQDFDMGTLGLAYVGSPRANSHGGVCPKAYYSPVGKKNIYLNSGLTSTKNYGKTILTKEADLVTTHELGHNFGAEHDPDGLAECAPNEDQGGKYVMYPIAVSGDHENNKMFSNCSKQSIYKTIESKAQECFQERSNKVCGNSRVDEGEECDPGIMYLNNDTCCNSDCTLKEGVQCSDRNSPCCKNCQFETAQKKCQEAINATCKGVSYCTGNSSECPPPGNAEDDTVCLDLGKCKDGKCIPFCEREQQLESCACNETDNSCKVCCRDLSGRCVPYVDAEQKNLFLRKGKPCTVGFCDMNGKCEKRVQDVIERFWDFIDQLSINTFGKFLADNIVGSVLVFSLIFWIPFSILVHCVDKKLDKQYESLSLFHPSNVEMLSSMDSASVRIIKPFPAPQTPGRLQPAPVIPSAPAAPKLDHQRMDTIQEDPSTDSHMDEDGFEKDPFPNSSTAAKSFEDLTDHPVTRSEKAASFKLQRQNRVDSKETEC
Chain of C-C chemokine receptor type 6 (P51684 whole entry): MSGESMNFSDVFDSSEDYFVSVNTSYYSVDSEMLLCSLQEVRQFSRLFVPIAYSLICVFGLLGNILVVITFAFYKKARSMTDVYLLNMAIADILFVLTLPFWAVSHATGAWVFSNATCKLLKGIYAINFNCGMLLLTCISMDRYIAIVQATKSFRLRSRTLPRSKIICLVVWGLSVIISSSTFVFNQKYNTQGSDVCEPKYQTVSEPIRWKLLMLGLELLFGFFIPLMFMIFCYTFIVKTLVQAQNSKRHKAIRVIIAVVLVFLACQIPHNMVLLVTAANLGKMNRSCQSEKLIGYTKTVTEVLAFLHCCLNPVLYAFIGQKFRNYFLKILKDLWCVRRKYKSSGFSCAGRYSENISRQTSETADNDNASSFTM

O=C(NCc1nc2ccccc2[nH]1)C1=C[C@@H](c2csc3ccccc23)C[C@@H](OCCCCO)O1
IC50 [1]: 80.2 µM (inactive) | IC50 [2]: 1.36 µM (active) | IC50 [3]: 1.91 µM (active) | IC50 [4]: 64.4 µM (inactive)

CN(c1ccccc1)S(=O)(=O)c1cccc(NC(=O)CSc2nncs2)c1
AC50 [5]: 15.8 µM (active) | AC50 [6]: 1.44 µM (active) | AC50 [7]: 2.6 µM (active) | AC50 [8]: 4.3 µM (active)

CSc1ccccc1-c1nnc(-c2ccccc2)o1
EC50 [9]: > 67.5 µM (inactive) | EC50 (cells [10]): > 67.5 µM (inactive)

COc1cc(C(=O)NC2CC3CCCC(C2)N3CC(=O)Nc2ccc(Cl)cc2)cc(OC)c1OC (centres undefined)
IC50 [11]: > 79 µM (inactive) | IC50 [12]: > 79 µM (inactive)

C[C@@H]1CN([C@H](C)CO)C(=O)CCCn2nncc2CO[C@H]1CN(C)Cc1ccc(Oc2ccccc2)cc1
AC50 [13]: > 70 µM (inactive) | AC50 (Paired box protein Pax-8): 22.1 µM (active) | AC50 [14]: 0.00024 µM (active) | AC50 [15]: > 70 µM (inactive) | AC50 [16]: 47.9 µM (active)

Cc1cccc(C(=O)Nc2cccc(C(=O)Nc3ccccc3)c2)c1
IC50 [17]: 1.14 µM (active)

CC(=O)Oc1ccc(C(=O)Nc2cc(C)on2)cc1
AC50 (cells [18]): > 52 µM (inactive)

O=C(NNc1ccccc1Br)C(O)(c1cccc(C(F)(F)F)c1)c1cccc(C(F)(F)F)c1
AC50 (INS1): 6.89 µM (active) | IC50 [19]: > 69.5 µM (inactive) | EC50 (Streptococcus): 9.39 µM (active) | EC50 (Streptokinase A): 2.13 µM (active) | EC50 [20]: 3.48 µM (active)

S=C(Nc1ccc(Cl)cc1Cl)NC1CCCCC1
AC50 [21]: 2.25 µM (active)

CCCCn1nnnc1C1(C)CCC(=O)N1CCCn1ccnc1 (centres undefined)
IC50 [22]: > 43.7 µM (inactive)

C#CCOc1ccc(C2C(C#N)=C(N)Oc3cc(O)ccc32)cc1 (centres undefined)
AC50 (cells [23]): 3.61 µM (active)

O=C1C=C(NCc2ccc(Cl)cc2)C(=O)c2ccccc21
AC50 [24]: > 70 µM (inactive) | AC50 [25]: > 70 µM (inactive) | AC50 [26]: 53.3 µM (active)

CCOC(=O)CNC(=O)CSc1ncnc2c1cnn2-c1ccc(OC)cc1
AC50 (HEK293): 34.4 µM (active) | AC50 [27]: 34.4 µM (active)

CCOC(=O)C1=C[C@@H](c2ccccc2)N(S(=O)(=O)c2ccc(C)cc2)[C@H]1c1ccccc1Cl
AC50 [28]: > 30 µM (inactive)

CO[C@@H]1CN(C)C(=O)c2ccc(NC(=O)c3ccc(-c4ccccc4)cc3)cc2OC[C@@H](C)NC[C@H]1C
AC50 [29]: 12.1 µM (active) | AC50 [30]: 19.6 µM (active) | AC50 [31]: 10.8 µM (active) | AC50 [32]: 8.67 µM (active) | AC50 [33]: 10.3 µM (active) | AC50 [34]: 12.3 µM (active)

Reference: ChEMBL document CHEMBL1201862, “PubChem BioAssay data set” (2004)
